The subject of data set [1] is Caco-2 cells. The data set is described as follows: Transport in Caco-2 cells. It is filed as in vitro ADME, human. Conditions: Caco-2, no inhibitor; Papp (BL−AP)/Papp (AP−BL). As to the method: (§1) The culture medium was changed every other day for the first 7 days and then daily for the next 14 days. […] Prior to the transport experiments, the cell monolayers were washed three times with HBSS at 37°C. […] At the same time, the corresponding opposite side was filled with medium as the receiving chamber. After incubation for 30, 60, 90, and 120 min, 250-μl aliquots of the medium was taken from the receiving chamber at each time point, and prepared for analysis by HPLC–MS/MS. […] where (ΔQ/Δt) is the linear slope of the drug concentration in the receptor chamber over time, A represents the surface area of the membrane (1.12 cm^2), and C0 is the initial concentration of drug in the donor chamber. The efflux ratio (ERpermeability) for BL to AP and AP to BL transport was defined by the following equation: […] where Papp (BL–AP) and Papp (AP–BL) are the apparent permeability of drugs from the basolateral (BL) to apical (AP) and AP to BL sides of the monolayer, respectively.
(Caco-2 monolayers are a common model of the intestinal barrier.)

Data set [2] in a line: Transport in Caco-2 cells. In kind it is in vitro ADME, human. The following applies: human; for efflux ratio at 120 min: Caco-2, Caco-2, no inhibitor, Papp (BL−AP)/Papp (AP−BL); for Papp A→B at 120 min / Papp B→A at 120 min: Caco-2, no inhibitor, digoxin 10 μM, TB-2 5 μM, BBR 10 μM. As to the method:
as §1

Data set [3] can be described thus: in vivo. The following applies: male, Wistar, rat, po.
A short description of data set [4]: PK in systemic plasma of GK rats after repeated oral administration (day 35). The following applies: rat, in vivo. It is filed as in vivo, rat. As to the method:
Analyses were performed on a Shimadzu LCMS-8030 triple quadrupole system (Shimadzu Corp., Japan) equipped with an electrospray ionization source. Data processing was performed using Shimadzu LC–MS LabSolutions (version 5.42 SP4, Shimadzu, Japan). Chromatographic separation was carried out on a Waters CORTECS C18+ column (100 mm × 2.1 mm, 2.7 μm, Ireland) with a security guard C18+ column (5 mm × 2.1 mm, 2.7 μm, Ireland). […] The gradient elution was 85% B from 0 to 2.5 min, 85% B–83% B from 2.5 to 3.0 min, 83% B from 3.0 to 6.0 min, 83% B–40% B from 6.0 to 6.5 min, 40% B from 6.5 to 7.0 min, 40% B–85% B from 7.0 to 7.2 min, and 85% B from 7.2 to 12 min. […] The optimized precursor-to-product ion pairs (collision energy) were in the positive mode as follows: m/z 579.20–255.15 (28 V) for TB-2 (at 4.1 min) and timosaponin A3 (at 6.1 min) and 271.50–154.70 (25 V) for tolbutamide (IS, at 5.8 min). […] If the concentrations of the compounds were over the linear range, the relevant samples were diluted with blank matrix by a factor of 10. […] Four-week-old male GK rats were fed a high-fat diet, and age-matched non-diabetic Wistar rats were fed standard chow as the control group. Under these dietary conditions, blood glucose was estimated each week for 7 weeks in 12-h fasted rats using a portable glucometer (One Touch Sure Step Meter, Johnson & Johnson, United States) by drawing the blood from the tail vein. GK rats with fasting blood glucose levels (FBG) above 16.7 mM were considered as diabetic rats, and only uniformly diabetic rats were used in this study. […] All the drugs were suspended in 0.5% carboxymethylcellulose sodium (CMC-Na) solution for oral gavage (10 ml/kg) once per day (at 9:00) for 6 weeks. Simultaneously, the Wistar and vehicle groups received vehicle over the treatment period. Food consumption and body weight were measured every week throughout the experimental periods. Non-fasting blood glucose (NFBG) levels were determined by collecting blood samples from the tail vein (at 9:00), and FBG levels were determined after a 6-h fast (at 15:00) on days 0, 7, 14, 21, and 42. On day 28, an oral glucose tolerance test (OGTT) was performed after an overnight fast. […] On day 42, the rats were anesthetized with urethane (1.4 g/kg, dissolved in saline) after an overnight fast and were sacrificed to collect the liver, kidney, heart, and spleen. The organs were weighed after washing with saline and drying to calculate the organ coefficient, namely, the ratio between the weight of organs and the body in each rat. The liver samples were diluted with 3 volumes (0.5 g/1.5 ml) of saline and homogenized. The liver homogenates and plasma samples (100 μl) were precipitated with three volumes of acetonitrile (containing 10 μg/ml tolbutamide). […] Then, 100 μl of the original mobile phase was added, and the samples were vortexed for 5 min and centrifuged at 13,000 rpm at 4°C for 10 min. Finally, the supernatant was used for HPLC–QQQ–MS/MS analysis. A non-compartmental analysis was performed using WinNonlin software (Pharsight 6.2, Raleigh, NC, United States) to calculate the PK parameters. The significance of PK parameters in normal rats, generated by the sparse method in WinNonlin, was assessed with Welch’s unequal variances t-test. The significance of the other results was assessed using two-tailed Student’s t-tests. Statistical significance was defined as P < 0.05.

The conditions of data set [5]: male, Wistar, rat, in vivo.
The conditions of data set [6]: ref Cai et al., 2008; cited from earlier work.
A short description of data set [7]: Body weight, food intake, organ coefficients and side effects in GK rats. In kind it is in vivo, rat. Here is the method: (§2) Four-week-old male GK rats were fed a high-fat diet, and age-matched non-diabetic Wistar rats were fed standard chow as the control group. Under these dietary conditions, blood glucose was estimated each week for 7 weeks in 12-h fasted rats using a portable glucometer (One Touch Sure Step Meter, Johnson & Johnson, United States) by drawing the blood from the tail vein. GK rats with fasting blood glucose levels (FBG) above 16.7 mM were considered as diabetic rats, and only uniformly diabetic rats were used in this study. […] All the drugs were suspended in 0.5% carboxymethylcellulose sodium (CMC-Na) solution for oral gavage (10 ml/kg) once per day (at 9:00) for 6 weeks. Simultaneously, the Wistar and vehicle groups received vehicle over the treatment period. Food consumption and body weight were measured every week throughout the experimental periods. Non-fasting blood glucose (NFBG) levels were determined by collecting blood samples from the tail vein (at 9:00), and FBG levels were determined after a 6-h fast (at 15:00) on days 0, 7, 14, 21, and 42. On day 28, an oral glucose tolerance test (OGTT) was performed after an overnight fast. […] On day 42, the rats were anesthetized with urethane (1.4 g/kg, dissolved in saline) after an overnight fast and were sacrificed to collect the liver, kidney, heart, and spleen. The organs were weighed after washing with saline and drying to calculate the organ coefficient, namely, the ratio between the weight of organs and the body in each rat.

For data set [8], the system named is GK rats. The data set is described as follows: NFBG and FBG levels in GK rats, 6-week oral treatment. Conditions: during 6-week treatment, TB-2 33.3, BBR 66.7, TB-2+BBR 100, metformin 200 mg/kg/day. In kind it is in vivo, rat. Here is the method:
as §2

The nature of data set [9]: in vivo. The following applies: male, Wistar, rat, po. The source holds these as a separate data set.
Data set [10] deals with GK rats. Description: Oral glucose tolerance test (OGTT) in GK rats on day 28. Conditions: after 4 weeks of treatment, glucose 2 g/kg oral. In kind it is in vivo, rat. Here is the method: as §2
For data set [11] the following is noted: male, Wistar, rat, in vivo. The source holds these as a separate data set.
In data set [12] the test system is primary rat hepatocytes. Description: Hepatic metabolism in primary hepatocytes. Conditions: BBR 1 μM, 3 h, ABT 1 mM, TB-2 0.1 to 30 μM.
The mark [13] stands for this setting: read-out: ERpermeability (efflux ratio).
[14] abbreviates: with BBR 10 μM (co-incubated), Caco-2, TB-2 5 μM in presence of BBR (10 μM), n = 3.

Molecules are shown by their SMILES. Where two headings read alike, the source gives them in different places.

Consider `C[C@H]1O[C@@H](O[C@H]2[C@@H](O)C[C@H](O[C@H]3[C@@H](O)C[C@H](O[C@H]4CC[C@@]5(C)[C@H](CC[C@@H]6[C@@H]5C[C@@H](O)[C@]5(C)[C@@H](C7=CC(=O)OC7)CC[C@]65O)C4)O[C@@H]3C)O[C@@H]2C)C[C@H](O)[C@@H]1O` [Digoxin, digoxin], for which the “ERpermeability (efflux ratio)” value in data set [1] is 138.8. For the same molecule, the efflux ratio at 120 min in data set [2] (setting [13]) is roughly 130. In addition, in data set [2] (n = 3), the apical-to-basolateral permeability (Papp A→B) at 120 min came out at 0.191 ± 0.02 ×10⁻⁶ cm/s and the Papp B→A at 120 min worked out at 26.5 ± 1.91 ×10⁻⁶ cm/s.
For the molecule `CC(CCC1(O)OC2CC3C4CCC5CC(OC6OC(CO)C(O)C(O)C6OC6OC(CO)C(O)C(O)C6O)CCC5(C)C4CCC3(C)C2C1C)COC1OC(CO)C(O)C(O)C1O` (stereo not shown) [TB-2, timosaponin B2], the Tmax amounted to 1 h in [3] (33.3 mg/kg); 2 h in data set [3] (100 mg/kg); 1.1 ± 0.3 h in [4] (male, GK, po, 33.3 mg/kg); 2.1 ± 0.6 h in [4] (male, GK, po, 33.3 mg/kg, Tmax); 0.2 h in data set [9] (33.3 mg/kg); 2 h in data set [9] (100 mg/kg). In addition, the half-life in data set [3] (100 mg/kg) was 22.8 h; in data set [4] (male, GK, po, 33.3 mg/kg, T1/2), 14.3 ± 5.3 h; in [9] (100 mg/kg) it was 23.2 h. The AUC in [4] (male, GK, po, 33.3 mg/kg) was found to be 100.4 ± 26.2 h ∗ ng/ml; in data set [4] (male, GK, po, 33.3 mg/kg, AUC), 77.5 ± 13.6 ng·h/mL. Besides, the T1/2 in data set [4] (male, GK, po, 33.3 mg/kg) came to 8.6 ± 1.8 h. For the same molecule, in data set [4], the “increase in AUC on combination vs single treatment” value is on record as “no significant improvement”. Further, the “increase in Cmax on combination vs single treatment” value in data set [4] is given as “no significant improvement”. Moreover, the “improvement of levels on co-administration” value in data set [5] is on record as 141–230%. In addition, in [6], the bioavailability is on record as 1.2%. Moreover, the “effect on body weight or food consumption vs vehicle” value in data set [7] (6-week oral treatment) was “no effect”. Further, in [7] (day 42), the “effect on organ coefficients (liver and kidney) vs vehicle” value was “limited”. The efflux ratio at 120 min in [2] (setting [13]) is 1.1. Besides, in [2] (Caco-2, with BBR 10 μM (co-incubated), Caco-2, TB-2 5 μM in presence of BBR (10 μM), read-out: ERpermeability (efflux ratio)), the efflux ratio at 120 min, 5 μM was found to be 1. In addition, the Papp A→B at 120 min, 5 μM in [2] (setting [14]) turned out to be 0.081 ± 0.035 ×10⁻⁶ cm/s. The Papp B→A at 120 min, 5 μM in data set [2] (setting [14]) was 0.085 ± 0.035 ×10⁻⁶ cm/s. This molecule also came in with an apparent permeability from apical to basolateral (Papp A→B) at 120 min in data set [2] (n = 3) of 0.057 ± 0.032 ×10⁻⁶ cm/s. Further, the Papp B→A at 120 min in data set [2] (n = 3) was determined as 0.061 ± 0.043 ×10⁻⁶ cm/s. Further, the “FBG levels compared with the vehicle group (in words)” value in data set [8] is “no significant differences”. The “NFBG levels compared with the vehicle group (in words)” value in [8] was “no significant differences”. Besides, the “decrease in the AUC of blood glucose in OGTT vs vehicle” value in data set [10] is “didn’t significantly decrease”. The “ERliver (liver extraction ratio)” value in data set [11] turned out to be 77.8%; in data set [11] (po, 33.3 mg/kg), 80.6%. Also, the “effect on BBR metabolism and the generation of M2–M5” value in data set [12] is listed as “did not significantly affect”.

Broadly, the Papp A→B is the apparent permeability from the apical to the basolateral side of a cell layer. Usually Papp B→A stands for how fast a substance crosses the layer from the basolateral side. One may read the Tmax as the time from dosing to the highest level. A word on the half-life: it is the time needed for the level to fall by half in the phase considered. The low end stands for rapid decline, the high end for slow decline. The term bioavailability denotes the share of a dose that reaches the circulation, judged against a reference dose that is usually intravenous.

These data come from PMC6353801, “Enhanced Anti-diabetic Effect of Berberine Combined With Timosaponin B2 in Goto-Kakizaki Rats, Associated With Increased Variety and Exposure of Effective Substances Through Intestinal Absorption” (Frontiers in Pharmacology, 2019).
